From patent US5399748A, “Derivatives of aspartic acid and glutamic acid having anticholecystokinin activity” (James Black Foundation Limited, priority 1990, dated 1995) come the findings set out here.

The first assay addresses T1, CCK-A (Cavia porcellus, UniProt Q63931).
T1 construct: Isolated, strip preparations were prepared from gall-bladders removed from male Dunkin-Hartley guinea-pigs; from tissue; host or cells: isolated gall-bladder strips of male Dunkin-Hartley guinea-pigs
T1 sequence (Q63931 1-430): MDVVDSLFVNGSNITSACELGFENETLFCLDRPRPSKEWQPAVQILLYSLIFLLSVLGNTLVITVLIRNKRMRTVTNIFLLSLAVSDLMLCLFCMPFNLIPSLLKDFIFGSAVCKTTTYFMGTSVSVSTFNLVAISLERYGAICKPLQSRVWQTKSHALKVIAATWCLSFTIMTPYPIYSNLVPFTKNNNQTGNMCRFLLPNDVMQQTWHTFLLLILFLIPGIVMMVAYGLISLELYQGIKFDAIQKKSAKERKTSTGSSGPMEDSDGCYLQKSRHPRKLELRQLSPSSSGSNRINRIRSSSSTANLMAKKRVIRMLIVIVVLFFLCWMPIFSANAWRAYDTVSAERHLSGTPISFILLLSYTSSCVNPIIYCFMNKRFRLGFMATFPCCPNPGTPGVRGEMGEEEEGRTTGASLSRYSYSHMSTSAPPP
The experiment in a line: CCK-receptor bioassay, isolated guinea-pig gall-bladder strips, CCK-8 as agonist. It is filed as cell-based, male Dunkin-Hartley guinea-pigs. Conditions: negative logarithm (base 10) of equilibrium dissociation constant (pKB), CCK-8 agonist, test compound incubated 60 minutes. The procedure: The compounds were assayed using the CCK-receptor bioassay as follows:
Isolated, strip preparations were prepared from gall-bladders removed from male Dunkin-Hartley guinea-pigs (250-500 g body weight) according to the method of La Morte, W. W., et al., J.P.E.T., 217, (3), 638-644 (1981).
The complete gall-bladder is removed and opened along the longitudinal axis. Strips measuring 3 mm in the longitudinal axis and 1 mm in the transverse axis are cut and then tied with cotton to stainless steel wires. The preparation is connected to a GRASS FTO3 isometric transducer under an initial loading tension of 1 g and is immersed in 20 mls of Krebs solution maintained at 37° C. and gassed with 95% O2 /5% CO2. The composition (mM) of the Krebs solution is as follows: Na^+ 143, K^+ 5.9, Ca^2+ 0.5, Mg^2+ 1.2, Cl^- 128, H2 PO4^- 2.2, HCO3^- 24.9, SO4^2- 1.2, dextrose 10. After 30 mins the preparation is washed. Drug addition begins after an initial 90 min stabilisation period. Responses are measured as changes in tension from that immediately prior to any drug addition. Single cumulative agonist concentration-effect curves, using CCK-8 as agonist, are obtained on each preparation in the absence and presence of test compound which has been incubated for 60 minutes. The antagonist activity of the test compound is estimated and expressed as the negative logarithm (base 10) of the equilibrium dissociation constants (pKB) using the modifications of standard competitive analysis described by Black et al., Br. J. Pharmacol.,86,571-579, (1985) and Shankley et al., Br. J. Pharmacol.,94,264-274 (1988).
The compound `O=C(O)C[C@H](NS(=O)(=O)Cc1ccc2ccccc2c1)C(=O)NCCc1ccccc1` [Example 10, Naphthylmethanesulphonyl-L-aspartyl (2-phenethyl)amide] displayed a negative logarithm of the KB (pKB) of 5.40 ± 0.18.

Regarding `COc1ccc2cc(S(=O)(=O)N[C@@H](CC(=O)O)C(=O)NCCc3ccccc3)ccc2c1Cl` [Example 13, 5-Chloro-6-methoxynaphthalenesulphonyl-L-aspartyl (2-phenethyl)amide], the negative-log KB (pKB) is reported as 6.49 ± 0.38.

`O=C(O)C[C@H](NS(=O)(=O)/C=C/c1ccccc1)C(=O)NCCc1ccccc1` [Example 22, 2-phenethenylsulphonyl-L-aspartyl (2-phenethyl)amide] had a pKB of 6.27 ± 0.22.

The same assay, now with this note: negative logarithm (base 10) of equilibrium dissociation constant (pKB), CCK-8 agonist, test compound incubated 60 minutes, read-out: pK8 versus CCK (gallbladder) (converted).
Consider `O=C(O)C[C@H](NS(=O)(=O)c1ccc2ccccc2c1)C(=O)NCCc1ccccc1` [Example 1, 2-Naphthalenesulphonyl-L-aspartyl (2-phenethyl)amide], for which the Kb was 324 nM.

For the compound `O=C(O)C[C@H](NS(=O)(=O)CCc1ccccc1)C(=O)NCCc1ccccc1` [Example 7, 2-phenylethanesulphonyl-L-aspartyl (2-phenethyl)amide], the Kb is 3470 nM.

Regarding `O=C(O)C[C@H](NS(=O)(=O)c1ccc(Cl)c(Cl)c1)C(=O)NCCc1ccccc1` [Example 9, 3,4-Dichlorobenzenesulphonyl-L-aspartyl (2-phenethyl)amide], the Kb was 1700 nM.

In the case of `COc1ccc2cc(S(=O)(=O)N[C@@H](CC(=O)O)C(=O)NCCc3ccccc3)ccc2c1` [Example 12, 6-Methoxynaphthalenesulphonyl-L-aspartyl (2-phenethyl)amide], the Kb was 257 nM.

As to `COc1cc2cc(S(=O)(=O)N[C@@H](CC(=O)O)C(=O)NCCc3ccccc3)ccc2c(Cl)c1OC` [Example 14, 5-Chloro-6,7-dimethoxynaphthalenesulphonyl-L-aspartyl (2-phenethyl)amide], the Kb was 617 nM.

Turning to `O=C(O)C[C@@H](NS(=O)(=O)c1ccc2ccccc2c1)C(=O)NCCc1ccccc1` [Example 15, 2-Naphthalenesulphonyl-D-aspartyl (2-phenethyl)amide], the Kb is 1200 nM.

As to `O=C(O)CC[C@H](NS(=O)(=O)c1ccc2ccccc2c1)C(=O)NCCc1ccccc1` [Example 16, 2-Naphthalenesulphonyl-L-glutamyl (2-phenethyl)amide], the Kb was 724 nM.

Consider `O=C(O)C[C@H](NS(=O)(=O)c1ccc2ccccc2c1)C(=O)NCCc1ccc(F)cc1` [Example 18, 2-Naphthalenesulphonyl-L-aspartyl (2(4-fluorophenethyl)amide)], for which the Kb was 269 nM.

For `COc1ccc(CCNC(=O)[C@H](CC(=O)O)NS(=O)(=O)c2ccc3ccccc3c2)cc1` [Example 19, Naphthalenesulphonyl-L-aspartyl (2-(4-methoxyphenethyl)amide)], the Kb is 1020 nM.

As for `NS(=O)(=O)c1ccc(CCNC(=O)[C@H](CC(=O)O)NS(=O)(=O)c2ccc3ccccc3c2)cc1` [Example 20, 2-Naphthalenesulphonyl-L-aspartyl (2-(4-sulphonamidophenethyl)amide)], the Kb is 11200 nM.

Regarding `O=C(O)C[C@H](NS(=O)(=O)c1ccc2ccccc2c1)C(=O)N1CCc2ccccc2C1` [Example 21, 2-Naphthalenesulphonyl-L-aspartyl (1,2,3,4-tetrahydroisoquinolin)amide], the Kb is 7240 nM.

In the case of `O=C(O)C[C@H](NS(=O)(=O)c1ccc2ccccc2c1)C(=O)NCCCc1ccccc1` [Example 23, 2 -Naphthalenesulphonyl-L-aspartyl (3-phenylpropyl)amide], the Kb was 105 nM.

A word on the pKB: it is the negative decadic logarithm of the KB, by convention in mol/L. A lower pKB goes with a large KB.
